# Data: patent US20100104659A1, “BENZOPYRANOPYRAZOLES” (priority 2006, published 2010)
# Test system: RKO human colon adenocarcinoma cells (RKOp27 subclone), proliferating
# Test: Alamar Blue cell viability assay, RKO p27 uninduced (proliferating)
# Settings: RKOp27, 72 h, read-out: −log EC50 [mol/l] RKO p27 uninduced (proliferating), anti-proliferative/cytotoxic activity (converted)
# Procedure: The anti-proliferative/cytotoxic activity of the compounds described herein can be tested on subclones of RKO human colon adenocarcinoma cells (Schmidt et al., Oncogene 19, 2423-2429; 2000) using the Alamar Blue cell viability assay (described in O'Brien et al. Eur J Biochem 267, 5421-5426, 2000). The compounds are dissolved as 10 mM solutions in DMSO and subsequently diluted in semi-logarithmic steps. DMSO dilutions are further diluted 1:100 into Dulbecco's modified Eagle's medium (DMEM) containing 10% fetal calf serum to a final concentration twice as much as the final concentration in the test. RKO subclones are seeded into 96 well flat bottom plates at a density of 4000 cells per well in a volume of 50 μl per well. 24 hours after seeding the 50 μl each of the compound dilutions in DMEM medium are added into each well of the 96 well plate. Each compound dilution is tested as triplicates. Wells containing untreated control cells are filled with 50 μl DMEM medium containing 1% DMSO. The cells are then incubated with the substances for 72 hours at 37° C. in a humidified atmosphere containing 5% carbon dioxide. To determine the viability of the cells, 10 μl of an Alamar Blue solution (Biosource) are added and the fluorescence is measured at an extinction of 544 nm and an emission of 590 nm. For the calculation of the cell viability the emission value from untreated cells is set as 100% viability and the emission rates of treated cells are set in relation to the values of untreated cells. Viabilities are expressed as % values. The Graphpad Prism program (GraphPad Software, Inc) is used for the calculation of EC50 values for anti-proliferative/cytotoxic activity out of the obtained dose-response curves.
# Each compound dilution is tested as triplicates. Wells containing untreated control cells are filled with 50 μl DMEM medium containing 1% DMSO. The cells are then incubated with the substances for 72 hours at 37° C. in a humidified atmosphere containing 5% carbon dioxide. To determine the viability of the cells, 10 μl of an Alamar Blue solution (Biosource) are added and the fluorescence is measured at an extinction of 544 nm and an emission of 590 nm. For the calculation of the cell viability the emission value from untreated cells is set as 100% viability and the emission rates of treated cells are set in relation to the values of untreated cells. Viabilities are expressed as % values. The Graphpad Prism program is used for the calculation of EC50 values out of the obtained dose-response curves. Viability is compared of proliferating cells grown in the absence of the inducer Ponasterone A, versus viability of cells arrested by the expression of ectopic p27Kip1 induced by Ponasterone A.
row,Structure (SMILES),EC50 [nM]
1,"CCN(CC)CCN(C)C(=O)N1N=C2c3cc(F)ccc3OC[C@H]2[C@H]1c1ccccc1 (racemic) [Example 45, (3SR,3aSR)-8-Fluoro-3-phenyl-3a,4-dihydro-3H-chromeno[4,3-c]pyrazole-2-carboxylic acid (2-diethylamino-ethyl)-methyl-amide]",≤ 100
2,"CCN(CC)CCCN(C)C(=O)N1N=C2c3cc(F)ccc3OC[C@H]2[C@H]1c1ccccc1 (racemic) [Example 46, (3SR,3aSR)-8-Fluoro-3-phenyl-3a,4-dihydro-3H-chromeno[4,3-c]pyrazole-2-carboxylic acid (3-diethylamino-propyl)-methyl-amide]",≤ 100
3,"COCCNCCN(C)C(=O)N1N=C2c3cc(F)ccc3OC[C@H]2[C@H]1c1ccccc1 (racemic) [Example 47, (3SR,3aSR)-8-Fluoro-3-phenyl-3a,4-dihydro-3H-chromeno[4,3-c]pyrazole-2-carboxylic acid [2-(2-methoxy-ethylamino)-ethyl]-methyl-amide]",100 to 1000
4,"COCCNCCCN(C)C(=O)N1N=C2c3cc(F)ccc3OC[C@H]2[C@H]1c1ccccc1 (racemic) [Example 48, (3SR,3aSR)-8-Fluoro-3-phenyl-3a,4-dihydro-3H-chromeno[4,3-c]pyrazole-2-carboxylic acid [3-(2-methoxy-ethylamino)-propyl]-methyl-amide]",≤ 100
5,"CN(CCO)CCN(C)C(=O)N1N=C2c3cc(F)ccc3OC[C@H]2[C@H]1c1ccccc1 (racemic) [Example 49, (3SR,3aSR)-8-Fluoro-3-phenyl-3a,4-dihydro-3H-chromeno[4,3-c]pyrazole-2-carboxylic acid {2-[(2-hydroxy-ethyl)-methyl-amino]-ethyl}-methyl-amide]",≤ 100
6,"CN(CCO)CCCN(C)C(=O)N1N=C2c3cc(F)ccc3OC[C@H]2[C@H]1c1ccccc1 (racemic) [Example 50, (3SR,3aSR)-8-Fluoro-3-phenyl-3a,4-dihydro-3H-chromeno[4,3-c]pyrazole-2-carboxylic acid {3-[(2-hydroxy-ethyl)-methyl-amino]-propyl}-methyl-amide]",≤ 100
7,"C=CCNCCN(C)C(=O)N1N=C2c3cc(F)ccc3OC[C@H]2[C@H]1c1ccccc1 (racemic) [Example 51, (3SR,3aSR)-8-Fluoro-3-phenyl-3a,4-dihydro-3H-chromeno[4,3-c]pyrazole-2-carboxylic acid (2-allylamino-ethyl)-methyl-amide]",100 to 1000
8,"C=CCNCCCN(C)C(=O)N1N=C2c3cc(F)ccc3OC[C@H]2[C@H]1c1ccccc1 (racemic) [Example 52, (3SR,3aSR)-8-Fluoro-3-phenyl-3a,4-dihydro-3H-chromeno[4,3-c]pyrazole-2-carboxylic acid (3-allylamino-propyl)-methyl-amide]",100 to 1000
9,"CCN(C)CCN(C)C(=O)N1N=C2c3cc(F)ccc3OC[C@H]2[C@H]1c1ccccc1 (racemic) [Example 53, (3SR,3aSR)-8-Fluoro-3-phenyl-3a,4-dihydro-3H-chromeno[4,3-c]pyrazole-2-carboxylic acid [2-(ethyl-methyl-amino)-ethyl]-methyl-amide]",≤ 100
10,"CN(CCCNCC1CC1)C(=O)N1N=C2c3cc(F)ccc3OC[C@H]2[C@H]1c1ccccc1 (racemic) [Example 54, (3SR,3aSR)-8-Fluoro-3-phenyl-3a,4-dihydro-3H-chromeno[4,3-c]pyrazole-2-carboxylic acid [3-(cyclopropylmethyl-amino)-propyl]-methyl-amide]",100 to 1000
11,"CCN(C)CCCN(C)C(=O)N1N=C2c3cc(F)ccc3OC[C@H]2[C@H]1c1ccccc1 (racemic) [Example 55, (3SR,3aSR)-8-Fluoro-3-phenyl-3a,4-dihydro-3H-chromeno[4,3-c]pyrazole-2-carboxylic acid [3-(ethyl-methyl-amino)-propyl]-methyl-amide]",≤ 100
